Data taken from patent US9730944B2, “Antiviral activity of novel bicyclic heterocycles” (priority 2010, dated 2017).
Values after ≈ are worked out from the molar mass of the structure shown. Read-outs that look alike come from different tables or passages of the source.

Experiments:
HIV-1 strain IIIB = assay: Inhibition of replication of HIV-1 (IIIB strain) in MT-4 cells, MTT assay; assay type: cell-based; conditions: Human immunodeficiency virus 1, IIIB, MT4, 120 h, read-out: EC50 (μM) HIV-1 (IIIB)
HIV-2 strain (ROD) = assay: Inhibition of replication of HIV-2 (ROD strain) in MT-4 cells, MTT assay; assay type: cell-based; conditions: Human immunodeficiency virus 2, MT4, 120 h, read-out: EC50 (μM) HIV-2 (ROD)
poliovirus (PV type 1) = assay: microbe, parasite or virus in culture; assay type: cell-based; conditions: Enterovirus C, read-out: PV-1 EC50
poliovirus (PV type 2) = assay: microbe, parasite or virus in culture; assay type: cell-based; conditions: Enterovirus C, read-out: PV-2 EC50
poliovirus (PV type 3) = assay: microbe, parasite or virus in culture; assay type: cell-based; conditions: Enterovirus C, read-out: PV-3 EC50
in vitro [1] = conditions: human
in vitro [2] = conditions: African green monkey, PV CC50
in vitro [3] = conditions: human, PV CC50
[4] = MT-4 cells, MTT assay, five days after infection, 50% protection from cytopathic effect

Structure (SMILES)	EC50 (HIV-1 strain IIIB; [4]) [µM]	EC50 (HIV-2 strain (ROD); [4]) [µM]	EC50 (poliovirus (PV type 1); HeLa) [µg/mL]	EC50 (poliovirus (PV type 1); Vero) [µg/mL]	EC50 (poliovirus (PV type 2); HeLa) [µg/mL]	EC50 (poliovirus (PV type 2); Vero) [µg/mL]	EC50 (poliovirus (PV type 3); HeLa) [µg/mL]	EC50 (poliovirus (PV type 3); Vero) [µg/mL]	CC50 (in vitro [1]) [µM]	CC50 (in vitro [2]) [µg/mL]	CC50 (in vitro [3]) [µg/mL]	EC50 (HIV-1 strain IIIB) [µM]	EC50 (HIV-2 strain (ROD)) [µM]
Cc1nc(N2CCN(C(=O)COc3ccc(Cl)cc3)CC2)c2cc(-c3ccc(F)cc3)sc2n1 [Example 325, 2-(4-chlorophenoxy)-1-(4-(6-(4-fluorophenyl)-2-methylthieno[2,3-d]pyrimidin-4-yl)piperazin-1-yl)ethanone]	> 208	> 208	> 50	> 50	≥ 50	> 50	> 50	> 50	208	67.8 (≈ 136 µM)	> 50	–	–
NC(=O)Cc1nc(N2CCN(C(=O)COc3ccc(Cl)cc3)CC2)c2cc(-c3ccc(F)cc3)sc2n1 [Example 358, 2-(4-(4-(2-(4-chlorophenoxy)acetyl)piperazin-1-yl)-6-(4-fluorophenyl)thieno[2,3-d]pyrimidin-2-yl)acetamide]	> 19.1	> 19.1	> 50	> 50	≥ 50	> 50	> 50	> 50	> 19.1	> 150	> 50	–	–
COCCNC(=O)c1nc(N2CCN(C(=O)COc3ccc(Cl)cc3)CC2)c2cc(-c3ccc(F)cc3)sc2n1 [Example 356, 4-(4-(2-(4-chlorophenoxy)acetyl)piperazin-1-yl)-6-(4-fluorophenyl)-N-(2-methoxyethyl)thieno[2,3-d]pyrimidine-2-carboxamide]	> 155	> 155	> 50	> 50	≥ 50	≥ 50	> 50	> 50	> 155	108 (≈ 185 µM)	> 50	–	–
Cc1cccc(OCC(=O)N2CCN(c3nc(N)nc4sc(CCc5ccc(F)cc5)nc34)CC2)c1 [Example 53, 1-(4-(5-amino-2-(4-fluorophenethyl)thiazolo[5,4-d]pyrimidin-7-yl)piperazin-1-yl)-2-(m-tolyloxy)ethanone]	> 7.96	> 7.96	0.41 (≈ 0.809 µM)	0.12 (≈ 0.237 µM)	9.73 (≈ 19.2 µM)	0.14 (≈ 0.276 µM)	> 16.7	1.4 (≈ 2.76 µM)	201	> 150	> 50	–	–
Nc1nc(N2CCN(C(=O)COc3ccc(Cl)cc3)CC2)c2nc(CCOc3ccc(F)cc3)sc2n1 [Example 48, 1-(4-(5-amino-2-(2-(4-fluorophenoxy)ethyl)thiazolo[5,4-d]pyrimidin-7-yl)piperazin-1-yl)-2-(4-chlorophenoxy)ethanone]	0.63	5.12	0.35 (≈ 0.645 µM)	0.11 (≈ 0.203 µM)	0.36 (≈ 0.663 µM)	0.082 (≈ 0.151 µM)	0.97 (≈ 1.79 µM)	0.36 (≈ 0.663 µM)	11.7	> 150	49.4 (≈ 91 µM)	–	–
CCOC(=O)c1nc(N2CCN(C(=O)Nc3cccc(C)c3)CC2)c2cc(-c3ccc(F)cc3)sc2n1 [Example 361, ethyl 6-(4-fluorophenyl)-4-(4-(m-tolylcarbamoyl)piperazin-1-yl)thieno[2,3-d]pyrimidine-2-carboxylate]	–	–	> 50	> 50	≥ 50	> 50	> 50	> 50	156	61.7 (≈ 119 µM)	> 50	≥ 156	≥ 156
O=C(COc1ccc(Cl)cc1)N1CCN(c2ncnc3oc(Cc4ccc(F)cc4)nc23)CC1 [Example 170, 2-(4-chlorophenoxy)-1-(4-(2-(4-fluorobenzyl)oxazolo[5,4-d]pyrimidin-7-yl)piperazin-1-yl)ethanone]	4.03	> 50	> 50	> 50	≥ 50	1.76 (≈ 3.65 µM)	> 50	> 50	> 50	105 (≈ 218 µM)	> 50	–	–
Nc1nc(N2CCN(C(=O)COc3ccc(F)cc3)CC2)c2nc(CCc3ccc(F)cc3)sc2n1 [Example 51, 1-(4-(5-amino-2-(4-fluorophenethyl)thiazolo[5,4-d]pyrimidin-7-yl)piperazin-1-yl)-2-(4-fluorophenoxy)ethanone]	4.9	> 210	0.13 (≈ 0.255 µM)	0.12 (≈ 0.235 µM)	0.23 (≈ 0.45 µM)	0.13 (≈ 0.255 µM)	20.2 (≈ 39.5 µM)	2.68 (≈ 5.25 µM)	210	50 (≈ 97.9 µM)	> 50	–	–
Nc1nc(N2CCN(C(=O)COc3ccc(Cl)cc3)CC2)c2cc(-c3ccc(F)cc3)sc2n1 [Example 326, 1-(4-(2-amino-6-(4-fluorophenyl)thieno[2,3-d]pyrimidin-4-yl)piperazin-1-yl)-2-(4-chlorophenoxy)ethanone]	> 27.7	4.84	0.13 (≈ 0.261 µM)	0.037 (≈ 0.0743 µM)	0.051 (≈ 0.102 µM)	0.023 (≈ 0.0462 µM)	0.13 (≈ 0.261 µM)	0.17 (≈ 0.341 µM)	27.7	102 (≈ 205 µM)	35.2 (≈ 70.7 µM)	–	–
O=C(COc1ccc(Cl)cc1)N1CCN(c2nc(-c3ccccc3)nc3sc(-c4ccc(F)cc4)cc23)CC1 [Example 352, 2-(4-chlorophenoxy)-1-(4-(6-(4-fluorophenyl)-2-phenylthieno[2,3-d]pyrimidin-4-yl)piperazin-1-yl)ethanone]	> 224	> 224	> 50	> 50	≥ 50	> 50	> 50	> 50	> 224	> 150	> 50	–	–
Nc1nc(N2CCN(C(=O)COc3ccc(Cl)cc3)CC2)c2nc(C(Cc3ccccc3)c3ccc(F)cc3)sc2n1 (centres unmarked) [Example 67, 1-(4-(5-amino-2-(1-(4-fluorophenyl)-2-phenylethyl)thiazolo[5,4-d]pyrimidin-7-yl)piperazin-1-yl)-2-(4-chlorophenoxy)ethanone]	> 50	> 50	> 50	> 50	≥ 50	11.9 (≈ 19.7 µM)	> 50	> 50	> 50	114 (≈ 189 µM)	> 50	–	–
Cc1cccc(NC(=O)N2CCN(c3nc(-c4ccccc4)nc4sc(-c5ccc(F)cc5)cc34)CC2)c1 [Example 360, 4-(6-(4-fluorophenyl)-2-phenylthieno[2,3-d]pyrimidin-4-yl)-N-m-tolylpiperazine-1-carboxamide]	> 239	> 239	> 50	> 50	≥ 50	10.5 (≈ 20.1 µM)	> 50	> 50	> 239	93.4 (≈ 178 µM)	> 50	–	–
Nc1nc(N2CCN(C(=O)COc3ccc(Cl)cc3)CC2)c2nc(Cc3ccc(F)cc3)sc2n1 [Example 46, 1-(4-(5-amino-2-(4-fluorobenzyl)thiazolo[5,4-d]pyrimidin-7-yl)piperazin-1-yl)-2-(4-chlorophenoxy)ethanone]	0.67	1.15	0.11 (≈ 0.214 µM)	0.12 (≈ 0.234 µM)	0.039 (≈ 0.076 µM)	0.14 (≈ 0.273 µM)	0.11 (≈ 0.214 µM)	> 50	164	133 (≈ 259 µM)	> 50	–	–
Nc1nc(N2CCN(C(=O)CCOc3ccc(F)cc3)CC2)c2nc(CCc3ccc(F)cc3)sc2n1 [Example 55, 1-(4-(5-amino-2-(4-fluorophenethyl)thiazolo[5,4-d]pyrimidin-7-yl)piperazin-1-yl)-3-(4-fluorophenoxy)propan-1-one]	> 57.1	> 57.1	> 50	> 50	≥ 50	≥ 50	> 50	> 50	57.1	94.9 (≈ 181 µM)	> 50	–	–
CC(c1ccc(F)cc1)c1nc2c(N3CCN(C(=O)COc4ccc(Cl)cc4)CC3)nc(N)nc2s1 (centres unmarked) [Example 66, 1-(4-(5-amino-2-(1-(4-fluorophenyl)ethyl)thiazolo[5,4-d]pyrimidin-7-yl)piperazin-1-yl)-2-(4-chlorophenoxy)ethanone]	> 50	> 50	> 50	0.29 (≈ 0.55 µM)	≥ 50	0.11 (≈ 0.209 µM)	> 50	0.56 (≈ 1.06 µM)	> 50	130 (≈ 246 µM)	> 50	–	–
CCOC(=O)Cc1nc(N2CCN(C(=O)COc3ccc(Cl)cc3)CC2)c2cc(-c3ccc(F)cc3)sc2n1 [Example 354, ethyl 2-(4-(4-(2-(4-chlorophenoxy)acetyl)piperazin-1-yl)-6-(4-fluorophenyl)thieno[2,3-d]pyrimidin-2-yl)acetate]	> 159	> 159	> 50	> 50	≥ 50	> 50	> 50	> 50	159	129 (≈ 227 µM)	> 50	–	–
